Like-named read-outs stand apart in the source and are kept apart here.
How the values were obtained:
[1] = system: Staphylococcus aureus (ATCC 6538); experiment: Antimicrobial activity test by tube dilution method, bacteria; type: cell-based; details: for killing at 50000 µg/mL: Staphylococcus aureus, ATCC6538, 0.05 h, read-out: S. aureus % killing
Protocol: (§1) The antimicrobial activity of the compounds was determined by tube dilution method. Powdery compounds were taken in closed glass vials and were tested against Staphylococcus aureus (ATCC 6538) (bacteria) and Candida Albicans (ATCC 10231) (Fungi). 50 mg of the sample was taken in 1 ml of DMSO and the contact time for the sample was maintained as 3 minutes. The medium for microorganisms was Soyabean Casein Digest Agar for bacteria and Sabouraud's Dextrose Agar for fungi. The incubation time for bacteria was 2 days at 30-35° C. while for fungi was 3-5 days at 20-25° C.

[2] = system: Candida Albicans (ATCC 10231); experiment: Antimicrobial activity test by tube dilution method, fungi; type: cell-based; details: for killing at 50000 µg/mL: Candida albicans, ATCC10231, 0.05 h, read-out: C. albicans % killing
Protocol: as §1

[3] = 50 mg sample in 1 ml DMSO, contact time 3 minutes, Soyabean Casein Digest Agar, 2 days at 30-35° C.
[4] = 50 mg sample in 1 ml DMSO, contact time 3 minutes, Sabouraud's Dextrose Agar, 3-5 days at 20-25° C.

Structure (SMILES) | S. aureus Final Count [1, 3] | killing at 50000 µg/mL [1] | C. albicans Final Count [2, 4] | killing at 50000 µg/mL [2] | killing at 50000 µg/mL [1, 3] | killing at 50000 µg/mL [2, 4] | S. aureus % killing [1, 3] | C. albicans % killing [2, 4]
O=C(N/N=C\c1ccc([N+](=O)[O-])cc1)C12CC3CC(C1)CC(C(=O)N/N=C/c1ccc([N+](=O)[O-])cc1)(C3)C2 [Compound 5a, Bis [N′-(4-nitro)benzylidene]adamantane-1,3-dicarbohydrazide] | 0 | 100% | 0 | 100% |  |  |  | 
COc1cc(/C=N\NC(=O)C23CC4CC(C2)CC(C(=O)N/N=C/c2ccc(O)c(OC)c2)(C4)C3)ccc1O [Compound 5b, Bis [N′-(3-methoxy, 4-hydroxy)benzylidene]adamantane-1,3-dicarbohydrazide] | 1680000 |  | 0 |  | 90.3% | 100% |  | 
C/C(=N/NC(=O)C12CC3CC(C1)CC(C(=O)N/N=C(\C)c1cc(C)ccc1O)(C3)C2)c1cc(C)ccc1O [Compound 5c, Bis [N′-(1-(2-hydroxy, 5-methyl phenyl)ethylidene)]adamantane-1,3-dicarbohydrazide] | 2980000 |  | 10 |  | 82.9% | 100% |  | 
COc1ccc(/C=N\NC(=O)C23CC4CC(C2)CC(C(=O)N/N=C/c2ccc(OC)c(OC)c2)(C4)C3)cc1OC [Compound 5d] | 10300000 |  | 0 |  | 50.2% | 100% |  | 
CCOc1ccc(/C(C)=N\NC(=O)C23CC4CC(C2)CC(C(=O)N/N=C(\C)c2ccc(OCC)cc2)(C4)C3)cc1 [Compound 5e, Bis [N′-(1-(4-ethoxy)ethylidene)]adamantane-1,3-dicarbohydrazide] | 16400000 |  | 0 |  | 16.8% | 100% |  | 
O=C(N/N=C\c1ccc2ccccc2c1)C12CC3CC(C1)CC(C(=O)N/N=C/c1ccc4ccccc4c1)(C3)C2 [Compound 5f] | 16000000 |  | 0 |  | 20.4% | 100% |  | 
O=C(N/N=C/c1ccc([N+](=O)[O-])o1)C12CC3CC(C1)CC(C(=O)N/N=C/c1ccc([N+](=O)[O-])o1)(C3)C2 [Compound 5g] | 10 | 100% | 0 | 100% |  |  |  | 
COc1cc(/C=N\NC(=O)C23CC4CC(C2)CC(C(=O)N/N=C/c2cc(OC)c(O)c([N+](=O)[O-])c2)(C4)C3)cc([N+](=O)[O-])c1O [Compound 5h, Bis [N′-(3-nitro, 4-hydroxy, 5-methoxy)benzylidene]adamantane-1,3-dicarbohydrazide] | 0 | 100% | 0 | 100% |  |  |  | 
Cc1ccc(/C=N/NC(=O)C23CC4CC(C2)CC(C(=O)N/N=C/c2ccc(C)cc2)(C4)C3)cc1 [Compound 5i, Bis[N′-(4-methyl)benzylidene]adamantane-1,3-dicarbohydrazide] | 3120000 |  | 0 |  | 85% | 100% |  | 
O=C(N/N=C/c1ccc(O)cc1)C12CC3CC(C1)CC(C(=O)N/N=C/c1ccc(O)cc1)(C3)C2 [Compound 5j, Bis[N′-(4-hydroxy)benzylidene]adamantane-1,3-dicarbohydrazide] | 550000 |  | 0 |  | 97.2% | 100% |  | 
C/C(=N\NC(=O)C12CC3CC(C1)CC(C(=O)N/N=C(\C)c1ccc(O)cc1)(C3)C2)c1ccc(O)cc1 [Compound 5k, Bis[N′-(1-(4-hydroxyphenyl)ethylidene)]adamantane-1,3-dicarbohydrazide] | 7500000 |  | 0 |  | 60.3% | 100% |  | 
COc1cc(/C=N/NC(=O)C23CC4CC(C2)CC(C(=O)N/N=C/c2cc(Br)c(O)c(OC)c2)(C4)C3)cc(Br)c1O [Compound 5l, Bis[N′-(3-bromo,4hydroxy,5-methoxy)benzylidene]adamantane-1,3-dicarbohydrazide] | 0 |  | 0 |  | 100% | 100% |  | 
O=C(N/N=C\c1cccs1)C12CC3CC(C1)CC(C(=O)N/N=C/c1cccs1)(C3)C2 [Compound 5m] | 1230000 |  | 0 |  | 93.4% | 100% |  | 
CCOc1ccc(/C=N/NC(=O)C23CC4CC(C2)CC(C(=O)N/N=C/c2ccc(OCC)cc2)(C4)C3)cc1 [Compound 5n, Bis[N′-(4-ethoxy)benzylidene]adamantane-1,3-dicarbohydrazide] | 10 |  | 0 |  | 100% | 100% |  | 
O=C(NN=Cc1ccc(Cl)c([N+](=O)[O-])c1)C12CC3CC(C1)CC(C(=O)NN=Cc1ccc(Cl)c([N+](=O)[O-])c1)(C3)C2 [Compound 5o, Bis[N′-(3-nitro,4-chloro)benzylidene]adamantane-1,3-dicarbohydrazide] | 18400000 |  | 0 |  |  |  | 9.36% | 100.00%
O=C(N/N=C/c1ccc(Br)cc1)C12CC3CC(C1)CC(C(=O)N/N=C/c1ccc(Br)cc1)(C3)C2 [Compound 5p, Bis[N′-(4-bromo)benzylidene]adamantane-1,3-dicarbohydrazide] | 2310000 |  | 0 |  | 88.7% | 100% |  | 
COc1ccc(/C=N/NC(=O)C23CC4CC(C2)CC(C(=O)N/N=C/c2ccc(OC)cc2)(C4)C3)cc1 [Compound 5q, Bis[N′-(4-methoxy)benzylidene]adamantane-1,3-dicarbohydrazide] | 14400000 |  | 0 |  | 26.1% | 100% |  | 
CC(=NNC(=O)C12CC3CC(C1)CC(C(=O)NN=C(C)c1ccc(Cl)c([N+](=O)[O-])c1)(C3)C2)c1ccc(Cl)c([N+](=O)[O-])c1 [Compound 5r, Bis[N′-(1-(3-nitro,4-chloro)ethylidene)]adamantane-1,3-dicarbohydrazide] | 5100000 |  | 0 |  |  |  | 74.24% | 100.00%
